Reference: patent US10647680B2, “Urea compound, preparation method therefor and medical use thereof” (Ancureall Pharmaceutical (Shanghai) Co., Ltd., priority 2016, dated 2020)

Columns and labels:
U937 (FLT3 wild-type) = experiment: In vitro growth inhibition (GI50), U937; format: cell-based; conditions: Homo sapiens, U-937; Cell lines of leukemia; read-out: GI 50 U937 FLT 3(WT)
HL-60 (FLT3 wild type) = experiment: In vitro growth inhibition (GI50), HL-60; format: cell-based; conditions: Homo sapiens, Cell lines of leukemia, read-out: GI 50 HL60 FLT3 (WT)
Method in brief: (§1)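 After 3–5 days of treatment (top concentration 5,000 nM, serially diluted 2- or 10-fold to 0.01 nM, solvent ≤1%), viability was read by CCK8 at OD450. Growth rate was normalised to the time-zero and solvent-control wells, and GI50 was derived from the curve. Cultures in RPMI1640 + 10% FBS.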

[1] = system: KG-1 (expressing FGFR1OP2-FGFR1 fusion protein); experiment: In vitro growth inhibition (GI50), KG-1; format: cell-based; conditions: Homo sapiens; Cell lines of leukemia; read-out: GI 50 KG-1 FGFR1OP 2-FGFR1
[2] = system: K562 (FLT3 negative expression, positive expression of BCR-ABL fusion protein); experiment: In vitro growth inhibition (GI50), K562; format: cell-based; conditions: Homo sapiens, Cell lines of leukemia, read-out: GI 50 K562 BCR-ABL
[3] = system: OCI-AML3 (NPMc+ mutant type); experiment: In vitro growth inhibition (GI50), OCI-AML3; format: cell-based; conditions: Homo sapiens, OCI-AML-3; Cell lines of leukemia; read-out: GI 50 OCI- AML3 NPMc+
[4] = system: Kasumi-1 (c-Kit N822K mutant type); experiment: In vitro growth inhibition (GI50), Kasumi-1; format: cell-based; conditions: Homo sapiens, Cell lines of leukemia, read-out: GI 50 Kasumi-1 Kit (N822K)
Method in brief: as §1

[5] = system: MOLM-13 (FLT3 ITD+/− mutant type); experiment: In vitro growth inhibition (GI50), MOLM-13; format: cell-based, human; conditions: Homo sapiens, MOLM-13; Cell lines of leukemia; read-out: GI 50 MOLM-13 FLT3 (ITD+/−)
[6] = system: RAMOS (positive expression of Brutons tyrosine protein kinase); experiment: In vitro growth inhibition (GI50), RAMOS; format: cell-based; conditions: Homo sapiens, Cell lines of leukemia, read-out: GI 50 Ramos BTK
[7] = system: MV4-11 (FLT3 ITD+/+ mutant type); experiment: In vitro growth inhibition (GI50), MV4-11; format: cell-based, human; conditions: Homo sapiens, MV4-11; Cell lines of leukemia; read-out: GI 50 MV4-11 FLT3 (ITD +/+)
RS4; 11 (FLT3 wild type) = experiment: In vitro growth inhibition (GI50), RS4; 11; format: cell-based, human; conditions: Homo sapiens, RS4-11; Cell lines of leukemia; read-out: GI 50 RS4: 11 FLT3 (WT)

GI50 (U937 (FLT3 wild-type)) | GI50 (HL-60 (FLT3 wild type)) | GI50 [2] | GI50 [3] | GI50 [5] | GI50 [6] | GI50 [7] | GI50 (RS4; 11 (FLT3 wild type)) | SMILES | GI50 [1] | GI50 [4]
> 1000 nM | > 1000 nM | > 1000 nM | > 1000 nM | 0.1 to 1 nM | > 1000 nM | 0.1 to 1 nM | > 1000 nM | CCOc1ccc2c(c1)ncn2-c1ccc(NC(=O)Nc2cc(C(C)(C)C)n[nH]2)cc1 [Compound 72, 1-(5-tert-butyl-2H-pyrazol-3-yl)-3-[4-(5-ethoxyl-benzimidazol-1-yl)-phenyl]-urea] | > 1000 nM | > 1000 nM
> 1000 nM | > 1000 nM | > 1000 nM | > 1000 nM | 0.1 to 1 nM | > 1000 nM | 0.1 to 1 nM | > 1000 nM | CCCCCCOc1ccc2c(c1)ncn2-c1ccc(NC(=O)Nc2cc(C(C)(C)C)n[nH]2)cc1 [Compound 73, 1-(5-tert-butyl-2H-pyrazol-3-yl)-3-[4-(5-hexyloxyl-benzimidazol-1-yl)-phenyl]-urea] | > 1000 nM | > 1000 nM
> 1000 nM | > 1000 nM | > 1000 nM | > 1000 nM | 0.1 to 1 nM | > 1000 nM | 0.1 to 1 nM | > 1000 nM | CC(C)Oc1ccc2c(c1)ncn2-c1ccc(NC(=O)Nc2cc(C(C)(C)C)n[nH]2)cc1 [Compound 74, 1-(5-tert-butyl-2H-pyrazol-3-yl)-3-[4-(5-isopropoxy-benzimidazol-1-yl)-phenyl]-urea] | > 1000 nM | > 1000 nM
> 1000 nM | > 1000 nM | > 1000 nM | > 1000 nM | 0.1 to 1 nM | > 1000 nM | 0.1 to 1 nM | > 1000 nM | CCOCCOc1ccc2c(c1)ncn2-c1ccc(NC(=O)Nc2cc(C(C)(C)C)n[nH]2)cc1 [Compound 78, 1-(5-tert-butyl-2H-pyrazol-3-yl)-3-{4-[5-(2-ethoxyl-ethoxyl)-benzimidazol-1-yl]-phenyl}-urea] | > 1000 nM | > 1000 nM
> 1000 nM | > 1000 nM | > 1000 nM | > 1000 nM | 0.1 to 1 nM | > 1000 nM | 0.1 to 1 nM | > 1000 nM | COCC(O)COc1ccc2c(c1)ncn2-c1ccc(NC(=O)Nc2cc(C(C)(C)C)n[nH]2)cc1 (stereo not shown) [Compound 80, 1-(5-tert-butyl-2H-pyrazol-3-yl)-3-{4-[5-(2-hydroxy-3-methoxyl-propoxyl)-benzimidazol-1-yl]-phenyl}-urea] | > 1000 nM | > 1000 nM
100 to 1000 nM | 100 to 1000 nM | > 1000 nM | > 1000 nM | 0.1 to 1 nM | 100 to 1000 nM | 0.1 to 1 nM | > 1000 nM | CCCCN(CCCC)CCCOc1ccc2c(c1)ncn2-c1ccc(NC(=O)Nc2cc(C(C)(C)C)n[nH]2)cc1 [Compound 82, 1-(5-tert-butyl-2H-pyrazol-3-yl)-3-{4-[5-(3-dibutylaminopropoxy)-benzimidazol-1-yl]-phenyl}-urea] | > 1000 nM | > 1000 nM
> 1000 nM | > 1000 nM | > 1000 nM | > 1000 nM | 0.1 to 1 nM | > 1000 nM | 0.1 to 1 nM | > 1000 nM | CC(C)(C)c1cc(NC(=O)Nc2ccc(-n3cnc4cc(OCC#N)ccc43)cc2)[nH]n1 [Compound 83, 1-(5-tert-butyl-2H-pyrazol-3-yl)-3-[4-(5-cyanomethoxy-benzimidazol-1-yl)-phenyl]-urea] | > 1000 nM | > 1000 nM
> 1000 nM | > 1000 nM | > 1000 nM | > 1000 nM | 0.1 to 1 nM | > 1000 nM | 0.1 to 1 nM | > 1000 nM | CC(C)(C)c1cc(NC(=O)Nc2ccc(-n3cnc4cc(OC(F)(F)F)ccc43)cc2)[nH]n1 [Compound 84, 1-(5-tert-butyl-2H-pyrazol-3-yl)-3-[4-(5-trifluoromethoxy-benzimidazol-1-yl)-phenyl]-urea] | > 1000 nM | > 1000 nM
> 1000 nM | > 1000 nM | > 1000 nM | > 1000 nM | 0.1 to 1 nM | > 1000 nM | 0.1 to 1 nM | > 1000 nM | CC1(COc2ccc3c(c2)ncn3-c2ccc(NC(=O)Nc3cc(C(C)(C)C)n[nH]3)cc2)COC1 [Compound 85, 1-(5-tert-butyl-2H-pyrazol-3-yl)-3-{4-[5-(3-methyl-oxetane-3-ylmethoxy)-benzimidazol-1-yl]-phenyl]urea] | > 1000 nM | > 1000 nM
> 1000 nM | 100 to 1000 nM | > 1000 nM | > 1000 nM | 0.1 to 1 nM | > 1000 nM | 0.1 to 1 nM | > 1000 nM | CC(C)(C)c1cc(NC(=O)Nc2ccc(-n3cnc4cc(OCC5CCCO5)ccc43)cc2)[nH]n1 (stereo not shown) [Compound 86, 1-(5-tert-butyl-2H-pyrazol-3-yl)-3-{4-[5-(tetrahydrofuran-2-ylmethoxy)-benzimidazol-1-yl]-phenyl}-urea] | > 1000 nM | > 1000 nM
> 1000 nM | > 1000 nM | > 1000 nM | > 1000 nM | 0.1 to 1 nM | > 1000 nM | 0.1 to 1 nM | > 1000 nM | CC(C)(C)c1cc(NC(=O)Nc2ccc(-n3cnc4cc(OCC5CCCCO5)ccc43)cc2)[nH]n1 (stereo not shown) [Compound 87, 1-(5-tert-butyl-2H-pyrazol-3-yl)-3-{4-[5-(tetrahydro-pyran-2-ylmethoxy)-benzimidazol-1-yl]-phenyl}-urea] | > 1000 nM | > 1000 nM
> 1000 nM | > 1000 nM | > 1000 nM | > 1000 nM | 1 to 10 nM | > 1000 nM | 1 to 10 nM | > 1000 nM | CCOC(=O)COc1ccc2c(c1)ncn2-c1ccc(NC(=O)Nc2cc(C(C)(C)C)n[nH]2)cc1 [Compound 88, ethyl (1-{4-[3-(5-tert-butyl-2H-pyrazol-3-yl)-carbamido]-phenyl}-H-benzimidazol-5-yloxy)-acetate] | > 1000 nM | > 1000 nM
> 1000 nM | > 1000 nM | > 1000 nM | > 1000 nM | 0.1 to 1 nM | > 1000 nM | 0.1 to 1 nM | > 1000 nM | CC(C)(C)c1cc(NC(=O)Nc2ccc(-n3cnc4cc(OCCN5CCCCC5)ccc43)cc2)[nH]n1 [Compound 90, 1-(5-tert-butyl-2H-pyrazol-3-yl)-3-{4-[5-(2-piperidin-1-yl-ethoxyl)-benzimidazol-1-yl]-phenyl}-urea] | > 1000 nM | > 1000 nM
> 1000 nM | > 1000 nM | > 1000 nM | > 1000 nM | 0.1 to 1 nM | > 1000 nM | 0.1 to 1 nM | > 1000 nM | CC(C)(C)c1cc(NC(=O)Nc2ccc(-n3cnc4cc(OCCN5CCCCCC5)ccc43)cc2)[nH]n1 [Compound 91, 1-{4-[5-(2-azepan-1-yl-ethoxy)-benzimidazol-1-yl]-phenyl}-3-(5-tert-butyl-2H-pyrazol-3-yl)-urea] | > 1000 nM | > 1000 nM

SMILES | GI50 (U937 (FLT3 wild-type)) | GI50 (HL-60 (FLT3 wild type)) | GI50 [2] | GI50 [3] | GI50 [5] | GI50 [6] | GI50 [7] | GI50 (RS4; 11 (FLT3 wild type)) | GI50 [1] | GI50 [4]
CCC(C)Oc1ccc2c(c1)ncn2-c1ccc(NC(=O)Nc2cc(C(C)(C)C)n[nH]2)cc1 (stereo not shown) [Compound 75, 1-[4-(5-sec-butoxy-benzimidazol-1-yl)-phenyl]-3-(5-tert-butyl-2H-pyrazol-3-yl)-urea] | > 1000 nM | > 1000 nM | > 1000 nM | > 1000 nM | 0.1 to 1 nM | > 1000 nM | 0.1 to 1 nM | > 1000 nM | > 1000 nM | > 1000 nM
CC(C)COc1ccc2c(c1)ncn2-c1ccc(NC(=O)Nc2cc(C(C)(C)C)n[nH]2)cc1 [Compound 76, 1-(5-tert-butyl-2H-pyrazol-3-yl)-3-[4-(5-isobutoxy-benzimidazol-1-yl)-phenyl]-urea] | > 1000 nM | > 1000 nM | > 1000 nM | > 1000 nM | 1 to 10 nM | > 1000 nM | 1 to 10 nM | > 1000 nM | > 1000 nM | > 1000 nM
